Source: patent EP1024807B1, “USE OF THE COMPOUND 2-METHOXYPHENYL-1-METHYL-5P-METHYLBENZOYL-PYRROL-2-ACETAMIDO ACETATE FOR THE PRODUCTION OF AN ANTI-INFLAMMATORY DRUG WITH PREVENTION OF GASTRIC HYPERSECRETION AND RENAL IMPAIRMENT” (MEDOSAN Ricerca S.r.l., priority 1997, dated 1999)

Tested on: gastric mucosa
Assay: Gastroprotective action in vivo with an H1 receptor inhibitor
Design: species or system rat
Details: in the presence of an inhibitor of H1 receptors, fig. 17 and 18
Description: In the in vivo experimentation, evaluated as effect of the product both on gastric mucosal secretion and on the healthy condition of the mucosa itself, it was noted that in the presence of an inhibitor of H1 receptors (therefore a typical antihistamine agent), the gastroprotective effect of amtolmetin guacyl drops out. […] All of this constitutes a precise forewarning of the association of amtolmetin guacyl with H1 receptor inhibiting substances on pain of loss of the gastroprotective properties of the former (fig. 17 and 18).

Question: With `COc1ccccc1OC(=O)CNC(=O)Cc1ccc(C(=O)c2ccc(C)cc2)n1C` [MED 15, 2-methoxyphenyl-1-methyl-5p-methylbenzoylpyrrol-2-acetamido acetate] as the molecule, how does the gastroprotective effect read?
Answer: The gastroprotective effect was “drops out”.
